The record followed here is patent US7317038B2, “Nerve regeneration promoters containing semaphorin inhibitor as the active ingredient” (Dainippon Sumitomo Pharma Co., Ltd., priority 2000, dated 2008).

For assay [1], the target named is T1, binding of Sema3A and Neuropilin-1 (Mus musculus, UniProt O08665).
T1 construct: alkaline phosphatase was fused from the 758th amino acid to the C terminal side in said Sema3A; expressed in transfected cells; host or cells: COS7
T1 sequence (O08665 21-758 limits assumed): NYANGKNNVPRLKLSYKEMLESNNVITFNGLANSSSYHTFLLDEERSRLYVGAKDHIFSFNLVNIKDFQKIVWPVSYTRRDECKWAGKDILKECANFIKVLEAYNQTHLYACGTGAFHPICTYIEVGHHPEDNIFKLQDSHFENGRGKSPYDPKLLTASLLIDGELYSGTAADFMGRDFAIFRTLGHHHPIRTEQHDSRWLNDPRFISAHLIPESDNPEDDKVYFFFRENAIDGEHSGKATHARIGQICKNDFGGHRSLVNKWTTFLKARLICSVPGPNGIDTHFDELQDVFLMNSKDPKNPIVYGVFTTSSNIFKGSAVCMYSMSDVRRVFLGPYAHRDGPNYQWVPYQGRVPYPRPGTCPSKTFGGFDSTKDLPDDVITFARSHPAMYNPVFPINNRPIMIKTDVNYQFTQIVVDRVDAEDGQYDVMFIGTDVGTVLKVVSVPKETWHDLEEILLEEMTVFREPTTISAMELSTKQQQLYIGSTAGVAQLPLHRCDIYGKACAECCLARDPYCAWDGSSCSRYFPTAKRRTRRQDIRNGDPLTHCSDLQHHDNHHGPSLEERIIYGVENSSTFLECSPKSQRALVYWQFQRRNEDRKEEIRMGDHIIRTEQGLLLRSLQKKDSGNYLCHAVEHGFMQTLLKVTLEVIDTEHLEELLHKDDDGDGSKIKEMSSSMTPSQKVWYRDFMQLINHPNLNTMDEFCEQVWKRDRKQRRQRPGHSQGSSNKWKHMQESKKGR
Kind of assay: Sema3A-receptor-binding experiment (Sema3A-AP to Neuropilin-1 expressing COS7 cells). The conditions noted are these: SPF-3059-1 0 to 10 μg/ml. From the text:
Whether SPF-3059-1 inhibits the binding of Sema3A and Neuropilin-1, which is a component constituting Sema3A receptor complex, was examined in the receptor-binding experiment. Neuropilin-1 and plexin Al are currently known as constituting components of Sema3A receptors. However, mainly Neuropilin-1 is known to contribute to Sema3A binding. Sema3A fused with alkaline phosphatase (human-derived: heat-resistance) (Sema3A-AP) was used as a ligand in the receptor-binding experiment and the amount bound to the receptor was detected with the alkaline phosphatase activity as an index. Mouse-derived Sema3A was used. A recombinant gene was generated in which alkaline phosphatase was fused from the 758th amino acid to the C terminal side in said Sema3A. This recombinant gene was then introduced into a COS7 cell where it was expressed and secreted and Sema3A-AP was prepared.
The receptor-binding experiment was performed as described below. The Neuropilin-1 expressing plasmid (pUCSRα-Neuropilin-1) was introduced into COS7 cells and cultivated for 24 hours. These cells express Neuropilin-1 on the cell surface. […] The alkaline phosphatase activity derived from Sema3A-AP in the cell extract (=binding amount of Sema3A-AP) was determined. […] The solution was then measured for its absorbance at 405 nm (p-nitrophenol: generated from p-nitirophenyl phosphate with alkaline phosphatase).

Assay [2] deals with sciatic nerves that were crushed. As to the kind of experiment: In vivo nerve regeneration after sciatic nerve crush. The conditions noted are these: rat; 1 ug/day locally for 14 days; distal areas of 2 mm and 6 mm from the crush site. Here is the method: Male Wister rats were purchased at 7-week-old (CHARLES RIVER JAPAN, INC.) and bred under the light and dark cycles for 12 hours. The rats had free access to solid feedstuff (CLEA Japan, Inc., CE2) and water, and were used in the experiment after about one week of preliminary breeding. Under pentbarbital anesthesia, sciatic nerve of the rat thighs was exposed, clipped for 30 sec with forceps of 5 mm width, and was thus crushed. The crush site was marked with 10-0 nylon thread. SPF-3059-1 was dissolved in PBS at 8.3 ug/ml and was locally administered to the lesion site for 14 consecutive days at a flow rate of 1 ug/day by using an osmotic pressure pump (2ML2, 5 ul/hr, alzet). PBS was administered to the controls. At Day 14 of administration, the sciatic nerves were excised and trimmed at the distal areas from the crush site (the positions of marking) by 2 mm, 6 mm and 10 mm. The incised sciatic nerves were fixed in 2.5% glutaraldehyde/0.1 M phosphate buffer for a day and a night. When they were fixed, nerves were dehydrated by alcohol and were embedded in epoxy resin. […] After the areas of sciatic nerves were measured, the myelinated fiber density was calculated by […].

Each structure is given as a SMILES string. Entries after “also recorded” stand apart in the source; their conditions may differ.

`CC(=O)c1c(C)c(C(=O)C2COc3cc(O)c(O)c(C(=O)O)c3C2=O)cc2c(=O)c3c(C(=O)O)c(O)c(O)cc3oc12` (centres unmarked) [SPF-3059-1]: the “binding of Sema3A-AP to Neuropilin-1 expressing COS7 cells” value in assay [1] is reported as “decrease in a concentration-dependent manner; also recorded: inhibits the binding of Sema3A-AP to Neuropilin-1 in a concentration-dependent manner”. The “myelinated fiber density vs PBS-injected group” value in assay [2] is given as “increased more”.
